Structures are written as SMILES.

The target of data set [1] is Cholinesterase (Homo sapiens, UniProt P06276). In words: Inhibition of human serum BChE using butyrylthiocholine iodide as substrate pre-incubated for 20 mins before substrate addition and measured for 180 secs by spectrophotometry based Ellman's method. On the technique in general: DTNB colorimetry detects thiols as they appear.
Data set [2] can be described thus: in vitro. Particulars: mouse, mouse neuronal cells.
Description: Toxicity in mouse neuronal cells assessed as safe dose that maintains 100% cell viability incubated for 72 hrs by MTT assay
Data set [3] has as its target Acetylcholinesterase (Electrophorus electricus, UniProt O42275). Kind of data set: Inhibition of electric eel AChE using acetylthiocholine iodide as substrate incubated for 10 mins by spectrophotometry based Ellman's method.
For data set [4], the system named is HepG2. In words: cells. Particulars: Homo sapiens, HepG2, 72 h.
Description: Cytotoxicity against human HepG2 cell assessed as reduction in cell viability incubated for 72 hrs by MTT assay
The nature of data set [5]: in vitro. Particulars: human, HepG2 cells.
Description: Cytotoxicity against human HepG2 cell assessed as safe dose that maintains 100% cell viability incubated for 72 hrs by MTT assay
Data set [6] in a line: in vitro. Conditions: mouse, mouse neuronal cells. The source holds these as a separate data set.
Description: Toxicity in mouse neuronal cells assessed as reduction in cell viability incubated for 72 hrs by MTT assay
Data set [7] deals with Acetylcholinesterase (Homo sapiens, UniProt P22303). Kind of data set: Inhibition of recombinant human AChE using acetylthiocholine iodide as substrate pre-incubated for 20 mins before substrate addition and measured for 180 secs by spectrophotometry based Ellman's method.
Data set [8] concerns PC-12. Kind of data set: Cytotoxicity against rat PC12 cells assessed as reduction in cell viability up to 300 uM by MTS assay. The class given is cell-based. (Tetrazolium dyes change colour on reduction, which living cells bring about.)
In data set [9] the target is T1, Prostaglandin G/H synthase 1 (Ovis aries, UniProt P05979).
T1 sequence (P05979 whole entry): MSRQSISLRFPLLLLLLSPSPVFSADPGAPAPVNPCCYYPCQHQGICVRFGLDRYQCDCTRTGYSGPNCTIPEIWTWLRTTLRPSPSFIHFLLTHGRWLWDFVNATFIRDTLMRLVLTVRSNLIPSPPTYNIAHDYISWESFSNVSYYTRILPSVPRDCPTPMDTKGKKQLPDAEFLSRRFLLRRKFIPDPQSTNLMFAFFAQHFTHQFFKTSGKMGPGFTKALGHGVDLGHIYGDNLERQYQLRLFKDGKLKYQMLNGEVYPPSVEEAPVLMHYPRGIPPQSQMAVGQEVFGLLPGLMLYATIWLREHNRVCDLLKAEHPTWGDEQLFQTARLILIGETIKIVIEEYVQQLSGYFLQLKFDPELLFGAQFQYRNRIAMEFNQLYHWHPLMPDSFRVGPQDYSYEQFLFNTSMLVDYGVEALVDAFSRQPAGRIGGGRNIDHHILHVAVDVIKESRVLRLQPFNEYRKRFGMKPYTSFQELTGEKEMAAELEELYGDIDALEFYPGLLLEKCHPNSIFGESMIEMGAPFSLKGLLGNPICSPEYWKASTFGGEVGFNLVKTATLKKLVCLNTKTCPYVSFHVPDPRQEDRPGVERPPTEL
In words: Inhibition of ovine COX -1 by colorimetric inhibitor screening assay kit method.

Data set [10] can be described thus: in vitro. Conditions: PAMPA, pH 7.4.
In data set [11] the test system is PC-12. In words: Anti-inflammatory activity in lipopolysaccharide challenged rat PC12 cells assessed as decrease in interleukin-1 beta production at 100 uM pre-incubated for 24 hrs before LPS challenge for 48 hrs by immunoblot analysis. In kind it is functional. Background: Immunoblotting shows a protein as a band on a membrane.
Data set [12] in a line: Safety index, ratio of EC100 for test compound to EC100 for tacrine for cytotoxicity against human HepG2 cell assessed as safe dose that maintains 100% cell viability incubated for 72 hrs by MTT assay. In kind it is cell-based. Conditions: HepG2 cells.
Data set [13] concerns PC-12. Kind of data set: Anti-inflammatory activity in lipopolysaccharide challenged rat PC12 cells assessed as decrease in TNFalpha production at 100 uM pre-incubated for 24 hrs before LPS challenge for 48 hrs by immunoblot analysis. In kind it is functional.

Sequence of Cholinesterase (P06276 whole entry): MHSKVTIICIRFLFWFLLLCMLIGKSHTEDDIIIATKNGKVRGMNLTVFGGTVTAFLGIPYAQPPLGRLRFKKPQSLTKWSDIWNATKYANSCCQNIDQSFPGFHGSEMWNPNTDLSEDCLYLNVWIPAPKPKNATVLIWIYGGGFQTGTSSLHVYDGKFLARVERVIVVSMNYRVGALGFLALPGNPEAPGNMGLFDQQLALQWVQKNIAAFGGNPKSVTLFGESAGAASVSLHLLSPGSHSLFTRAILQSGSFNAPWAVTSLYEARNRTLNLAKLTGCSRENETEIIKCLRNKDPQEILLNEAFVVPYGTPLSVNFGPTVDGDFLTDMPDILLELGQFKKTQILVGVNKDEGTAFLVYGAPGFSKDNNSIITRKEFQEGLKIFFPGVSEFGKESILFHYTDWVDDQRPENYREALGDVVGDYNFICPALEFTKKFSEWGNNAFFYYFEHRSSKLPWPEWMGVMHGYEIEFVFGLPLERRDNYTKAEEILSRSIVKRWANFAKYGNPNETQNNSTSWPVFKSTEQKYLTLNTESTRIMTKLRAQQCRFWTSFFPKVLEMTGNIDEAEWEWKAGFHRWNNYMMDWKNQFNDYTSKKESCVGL
Sequence of Acetylcholinesterase (Homo sapiens, UniProt P22303) (P22303 whole entry): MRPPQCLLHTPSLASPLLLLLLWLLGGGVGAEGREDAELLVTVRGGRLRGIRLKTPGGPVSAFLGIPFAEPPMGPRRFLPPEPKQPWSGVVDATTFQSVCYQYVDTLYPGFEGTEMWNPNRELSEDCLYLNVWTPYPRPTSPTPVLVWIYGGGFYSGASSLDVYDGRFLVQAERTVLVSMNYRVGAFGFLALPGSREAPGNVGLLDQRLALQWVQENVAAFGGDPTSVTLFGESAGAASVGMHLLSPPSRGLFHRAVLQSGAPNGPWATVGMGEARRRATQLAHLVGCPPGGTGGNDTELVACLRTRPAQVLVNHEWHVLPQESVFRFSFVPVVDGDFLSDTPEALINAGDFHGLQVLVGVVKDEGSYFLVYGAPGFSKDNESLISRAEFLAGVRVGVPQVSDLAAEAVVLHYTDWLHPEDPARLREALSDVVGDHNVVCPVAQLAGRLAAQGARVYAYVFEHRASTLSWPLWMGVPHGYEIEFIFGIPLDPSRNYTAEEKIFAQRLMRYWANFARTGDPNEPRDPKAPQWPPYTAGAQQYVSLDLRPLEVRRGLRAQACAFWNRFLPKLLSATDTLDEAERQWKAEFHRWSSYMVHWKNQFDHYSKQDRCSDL
Sequence of Acetylcholinesterase (Electrophorus electricus, UniProt O42275) (O42275 whole entry): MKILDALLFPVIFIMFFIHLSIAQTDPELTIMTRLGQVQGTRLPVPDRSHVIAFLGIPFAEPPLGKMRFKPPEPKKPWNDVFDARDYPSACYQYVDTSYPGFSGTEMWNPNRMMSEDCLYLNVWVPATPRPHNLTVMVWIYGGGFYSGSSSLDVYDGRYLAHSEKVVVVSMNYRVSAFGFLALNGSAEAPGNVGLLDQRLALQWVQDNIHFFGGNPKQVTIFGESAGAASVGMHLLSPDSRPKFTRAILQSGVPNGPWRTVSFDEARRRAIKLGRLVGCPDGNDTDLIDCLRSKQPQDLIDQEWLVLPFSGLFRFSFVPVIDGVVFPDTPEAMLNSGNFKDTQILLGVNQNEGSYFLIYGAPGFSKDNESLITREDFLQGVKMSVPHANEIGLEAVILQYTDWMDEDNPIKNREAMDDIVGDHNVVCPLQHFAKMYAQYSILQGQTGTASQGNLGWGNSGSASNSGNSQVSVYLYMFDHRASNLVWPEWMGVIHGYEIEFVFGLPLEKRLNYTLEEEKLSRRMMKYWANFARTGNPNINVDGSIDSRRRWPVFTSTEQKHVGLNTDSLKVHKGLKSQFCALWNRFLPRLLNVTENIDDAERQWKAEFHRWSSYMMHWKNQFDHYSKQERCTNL

The IC50 is the midpoint of a concentration-inhibition curve. For the compound `S=C(NNc1c2c(nc3ccccc13)CCCC2)Nc1ccc(Cl)cc1`, the IC50 in data set [1] turned out to be 0.328 µM; in data set [3], 3.83 µM; in [4] it was 21.9 µM; in data set [7], 0.786 µM. Besides, the MNTC at 72 h in [2] stood at 2400 nM; in [5] it was 1.97 µM. This compound came in with a half-maximal inhibitory concentration (IC50) at 72 h in data set [6] of 7.1 µM.
With `S=C(NNc1c2c(nc3ccccc13)CCCC2)Nc1ccc(Br)cc1`, the IC50 in data set [1] came out at 0.426 µM; in data set [3], 0.861 µM; in data set [4] it was 69.5 µM; in data set [7], 0.571 µM. The MNTC at 72 h in data set [2] was determined as 788 nM; in data set [5], 2.96 µM. The compound also returned an IC50 at 72 h in [6] of 19.7 µM.
Turning to `O=[N+]([O-])c1ccc(-n2cc(COc3ccc(/C=N/Nc4c5c(nc6ccccc46)CCCC5)cc3)nn2)cc1`, the IC50 in data set [1] is 0.0256 µM; in [3], 0.535 µM; in data set [4], 53.6 µM; in data set [7] it was 1.05 µM. The values for the MNTC at 72 h in data set [2] and in [5] were 830 nM and 7.7 µM, respectively. The same compound gave an IC50 at 72 h in data set [6] of 2.95 µM.
What is called Papp is a coefficient for how fast a substance crosses the barrier. A lower Papp goes with poor permeation. The term inhibition denotes the change of the read-out against control, counted positive when it falls. Consider `Cl.Clc1ccc(-n2cc(COc3ccc(/C=N/Nc4c5c(nc6ccccc46)CCCC5)cc3)nn2)cc1`, for which the Activity entry in data set [8] is “Non-Toxic”. The IC50 in [1] worked out at 0.0678 µM; in data set [3], 4.38 µM; in [4], 178 µM; in data set [9], 13.4 µM; in data set [7], 7.03 µM. Further, the MNTC at 72 h in data set [2] turned out to be 3580 nM; in data set [5], 70 µM. The compound further showed a Papp at 6 h, 50 µM in data set [10] of 6.07 ×10⁻⁶ cm/s. The values for the inhibition at 100 µM in [11] and in data set [13] were greater than 90% and greater than 60%, respectively. In addition, in data set [12], the selectivity ratio at 72 h came out at 72. The compound further displayed an IC50 at 72 h in data set [6] of 8.28 µM.
Consider `NS(=O)(=O)c1ccc(-n2cc(COc3ccc(/C=N/Nc4c5c(nc6ccccc46)CCCC5)cc3)nn2)cc1`, for which the IC50 in [1] was 0.0389 µM; in data set [3] it was 0.807 µM; in [4] it was 25.7 µM; in [7], 1.11 µM. For the same compound, the MNTC at 72 h is 1580 nM in [2] and 1.04 µM in data set [5]. Also, the IC50 at 72 h in data set [6] was 16.4 µM.
`C(=N\Nc1c2c(nc3ccccc13)CCCC2)/c1ccc(OCc2cn(-c3ccccc3)nn2)cc1`: the IC50 in data set [1] is 0.054 µM; in [3], 0.917 µM; in [4], 28.4 µM; in [7], 0.9 µM. Besides, the MNTC at 72 h in [2] was determined as 1950 nM; in [5], 3.1 µM. Besides, the IC50 at 72 h in data set [6] was found to be 34.5 µM.
With `O=[N+]([O-])c1cccc(-n2cc(COc3ccc(/C=N/Nc4c5c(nc6ccccc46)CCCC5)cc3)nn2)c1`, the IC50 in data set [1] amounted to 0.0482 µM; in data set [3] it was 0.066 µM; in data set [4], 50.1 µM; in [7], 1.46 µM. The MNTC at 72 h came out at 976 nM in data set [2] and 4.18 µM in [5]. Moreover, in data set [6], the IC50 at 72 h turned out to be 28 µM.
For `NS(=O)(=O)c1ccc(NC(=S)NNc2c3c(nc4ccccc24)CCCC3)cc1`, the IC50 in data set [1] is 0.307 µM; in [3], 0.792 µM; in data set [4], 42.3 µM; in data set [7], 0.961 µM. The figures for the MNTC at 72 h in data set [2] and in data set [5] were 295 nM and 1.19 µM, respectively. Moreover, in [6], the IC50 at 72 h stood at 3.25 µM.
With `C(=N\Nc1c2c(nc3ccccc13)CCCC2)/c1ccc(OCc2cn(Cc3ccccc3)nn2)cc1`, the IC50 was 0.0361 µM in data set [1], 0.547 µM in data set [3], 33.4 µM in data set [4] and 1.05 µM in data set [7]. Besides, the MNTC at 72 h in data set [2] turned out to be 2670 nM; in data set [5] it was 1.2 µM. This compound also displayed an IC50 at 72 h in data set [6] of 5.71 µM.
Take `COc1ccc(NC(=S)NNc2c3c(nc4ccccc24)CCCC3)cc1`: the 50% inhibitory concentration (IC50) in data set [1] was 0.568 µM; in data set [3] it was 0.91 µM; in data set [4], 70.7 µM; in data set [7], 0.293 µM. For the same compound, the MNTC at 72 h in [2] was 1380 nM; in data set [5] it was 3.33 µM. This compound showed a half-maximal inhibitory concentration (IC50) at 72 h in data set [6] of 4.33 µM.
Regarding `Brc1ccc(-n2cc(COc3ccc(/C=N/Nc4c5c(nc6ccccc46)CCCC5)cc3)nn2)cc1.Cl`, in data set [8], the Activity is 30%. Moreover, the IC50 in data set [1] was found to be 0.0926 µM; in data set [3] it was 18.1 µM; in data set [4] it was 96.7 µM; in data set [9] it was 13.9 µM; in data set [7], 12.8 µM. In addition, the MNTC at 72 h in [2] stood at 1000 nM; in data set [5], 47.9 µM. Besides, the Papp at 6 h, 50 µM in data set [10] came out at 6.26 ×10⁻⁶ cm/s. The same compound came in with an IC50 at 72 h in data set [6] of 18.6 µM.
On to `C#CCOc1ccc(/C=N/Nc2c3c(nc4ccccc24)CCCC3)cc1`, for which the IC50 in [1] came to 0.11 µM; in data set [3] it was 0.438 µM; in data set [4], 46.1 µM; in data set [7] it was 2.73 µM. For the same compound, the MNTC at 72 h in data set [2] came to 4810 nM; in [5], 2.73 µM. This compound also returned a half-inhibitory concentration (IC50) at 72 h in data set [6] of 8.79 µM.
Consider `COc1ccc(-n2cc(COc3ccc(/C=N/Nc4c5c(nc6ccccc46)CCCC5)cc3)nn2)cc1.Cl`, for which the Activity in data set [8] was 30%. In addition, the IC50 in data set [1] came out at 0.0682 µM; in data set [3], 2.07 µM; in [4], 65.1 µM; in data set [9], 12.2 µM; in [7] it was 2.3 µM. Also, the MNTC at 72 h in data set [2] worked out at 1450 nM; in [5] it was 27.2 µM. The same compound yielded a Papp at 6 h, 50 µM in data set [10] of 6.35 ×10⁻⁶ cm/s. Besides, the inhibition at 100 µM in data set [11] is greater than 90%; in [13] it was greater than 60%. The selectivity ratio at 72 h in data set [12] stood at 27. In data set [6], this compound registered a half-maximal inhibitory concentration (IC50) at 72 h of 3.98 µM.
Turning to `C=CCNC(=S)NNc1c2c(nc3ccccc13)CCCC2`, the IC50 amounted to 0.722 µM in [1], 1.35 µM in data set [3], 80 µM in [4] and 5.77 µM in data set [7]. Further, the MNTC at 72 h in data set [2] was 2770 nM; in [5], 0.63 µM. Further, the IC50 at 72 h in [6] is 6.83 µM.
`Cl.O=C(O)c1ccc(-n2cc(COc3ccc(/C=N/Nc4c5c(nc6ccccc46)CCCC5)cc3)nn2)cc1`: the IC50 in data set [1] turned out to be 0.304 µM; in data set [3], 1.32 µM; in [4], 97.9 µM; in data set [7], 4.03 µM. For the same compound, the MNTC at 72 h was determined as 162 nM in data set [2] and 43.1 µM in data set [5]. In data set [10], the Papp at 6 h, 50 µM worked out at 1.77 ×10⁻⁶ cm/s. Further, the selectivity ratio at 72 h in [12] turned out to be 43. This compound also displayed an IC50 at 72 h in [6] of 3.71 µM.
For the compound `S=C(NNc1c2c(nc3ccccc13)CCCC2)Nc1ccccc1`, the IC50 in [1] stood at 0.748 µM; in data set [3], 1.85 µM; in [4] it was 82.9 µM; in [7], 0.61 µM. Besides, the MNTC at 72 h in data set [2] is 395 nM; in data set [5], 6.78 µM. Also, the IC50 at 72 h in data set [6] was 10.9 µM.
In the case of `Cc1ccc(-n2cc(COc3ccc(/C=N/Nc4c5c(nc6ccccc46)CCCC5)cc3)nn2)cc1.Cl`, in data set [8], the Activity result was “Non-Toxic”. The IC50 amounted to 0.0757 µM in data set [1]; 20.2 µM in data set [3]; 262 µM in data set [4]; 10.9 µM in data set [9]; 3.75 µM in [7]. Also, the results for the MNTC at 72 h in [2] and in [5] were 2580 nM and 113 µM, respectively. Also, the Papp at 6 h, 50 µM in data set [10] was 5.5 ×10⁻⁶ cm/s. For the same compound, the inhibition at 100 µM in data set [11] was greater than 90%; in data set [13], greater than 60%. In addition, the selectivity ratio at 72 h in [12] turned out to be 116. For the same compound, the IC50 at 72 h in data set [6] amounted to 5.85 µM.
For the compound `NS(=O)(=O)c1cc2c(cc1Cl)N=CNS2(=O)=O` [CHLOROTHIAZIDE], the apparent permeability coefficient (Papp) at 6 h, 50 µM in data set [10] came out at 0.66 ×10⁻⁶ cm/s.
The same measure, in the same setting: as for `CNC(=C[N+](=O)[O-])NCCSCc1ccc(CN(C)C)o1` [RANITIDINE], the figure is 0.04 ×10⁻⁶ cm/s.

The values above are taken from ChEMBL document CHEMBL4339188, “Tackling neuroinflammation and cholinergic deficit in Alzheimer's disease: Multi-target inhibitors of cholinesterases, cyclooxygenase-2 and 15-lipoxygenase” (Eur J Med Chem, 2019).
